Biological target: T1, human leukocyte elastase (Homo sapiens, UniProt P08246)
T1 sequence (P08246 30-267): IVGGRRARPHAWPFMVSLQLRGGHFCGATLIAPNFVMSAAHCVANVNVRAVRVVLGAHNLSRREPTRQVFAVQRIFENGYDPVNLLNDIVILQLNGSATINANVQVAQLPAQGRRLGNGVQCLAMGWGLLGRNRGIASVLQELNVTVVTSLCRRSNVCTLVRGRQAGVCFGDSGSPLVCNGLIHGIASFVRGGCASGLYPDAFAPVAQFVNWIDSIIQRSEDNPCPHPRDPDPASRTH
Assay: Inhibition of human leukocyte elastase in vitro (Ki* = koff/kon)
Format: biochemical
Conditions: Ki* = koff/kon (rate of reactivation of the enzyme divided by rate of inactivation); koff and kon measured, Ki* then calculated
Experimental: Ki*, which is defined as the rate of reactivation of the enzyme divided by the rate of inactivation of the enzyme (koff/kon), was therefore determined instead. The values of koff and kon were measured and Ki* was then calculated.
The value of kon was determined by measuring the enzyme activity of an aliquot of the enzyme as a function of the time after addition of the test compound (inhibitor). […] The value of kon was then obtained by the equation kon = kobs /[I] [formula] wherein [I] is the concentration of the inhibitor. The value of koff was similarly determined, and Ki* was then obtained by the equation Ki * = koff /kon [formula] .

Ki	SMILES
0.2 nM	COc1cc(C(C)C)c2c(c1)S(=O)(=O)N(COC1=C(N3CCCCC3)C(=O)N(c3ccccc3)C1)C2=O [Example 4G]
0.06 nM	COc1cc(C(C)C)c2c(c1)S(=O)(=O)N(COC1=C(Oc3ccccc3)C(=O)N(c3ccccc3)C1)C2=O [Example 4F]
0.27 nM	COc1cc(C(C)C)c2c(c1)S(=O)(=O)N(COc1c(C(C)=O)c(=O)n(C)c3ccccc13)C2=O [Example 3B, 2-(1-methyl-3-acetylcarbostyryl-4-yl)oxymethyl-4-isopropyl-6-methoxysaccharin]
0.23 nM	COc1cc(C(C)C)c2c(c1)S(=O)(=O)N(COc1nc3ccccn3c(=O)c1CN1CCOCC1)C2=O [Example 5, 2-[3-(4-morpholinylmethyl)-4-oxo-4H-pyrido[1,2-a]pyrimidin-2-yl]oxymethyl-4-isopropyl-6-methoxysaccharin]
0.016 nM	COc1cc(C(C)C)c2c(c1)S(=O)(=O)N(COC1=C(Cc3ccccc3)C(=O)OC1(C)C)C2=O [Example 1O]
0.093 nM	COc1cc(C(C)C)c2c(c1)S(=O)(=O)N(COC1=CC(=O)OC1(C)C)C2=O [Example 4E]
0.7 nM	CC(C)c1cccc2c1C(=O)N(COc1cc(=O)n(C)c3ccccc13)S2(=O)=O [Example 1C]
0.035 nM	Cc1cc(OCN2C(=O)c3c(C(C)C)cccc3S2(=O)=O)c(C(=O)c2ccccc2)c(=O)o1 [Example 1E]
0.25 nM	Cc1cc(OCN2C(=O)c3c(C(C)C)cccc3S2(=O)=O)cc(=O)o1 [Example 1D]
0.92 nM	COc1cc(C(C)C)c2c(c1)S(=O)(=O)N(COC1=C(C)C(=O)C(C)=C(C)C1=O)C2=O [Example 6, 2-(3,5,6-trimethyl-1,4-dioxo-2,5-cyclohexadien-2-yl)oxymethyl-4-isopropyl-6-methoxysaccharin]
0.041 nM	COc1cc(C(C)C)c2c(c1)S(=O)(=O)N(COC1=C(CN3CCOCC3)C(=O)OC1)C2=O [Example 1P]
0.22 nM	CC(C)c1cccc2c1C(=O)N(COc1cc(-c3ccccc3)oc(=O)c1)S2(=O)=O [Example 1F]
17 nM	COc1cc(C(C)C)c2c(c1)S(=O)(=O)N(COC1=C(C(C)=O)C(=O)c3ccoc3C1=O)C2=O [Example 7, 2-(5-acctyl-4,7-dihydro-4,7-dioxobenzofuran-6-yl)oxymethyl-4-isopropyl-6-methoxysaccharin]
0.43 nM	COc1cc(C(C)C)c2c(c1)S(=O)(=O)N(COc1c(C(C)=O)c(=O)n(-c3ccccc3)c3ccccc13)C2=O [Example 3A, 2-(1-phenyl-3-acetylcarbostyryl-4-yl)oxymethyl-4-isopropyl-6-methoxysaccharin]
0.4 nM	CC(C)c1cccc2c1C(=O)N(COC1=CC(=O)OC1)S2(=O)=O [Example 1A, 2-[(2,5-dihydro-5-oxo-3-furanyl)oxymethyl]-4-isopropylsaccharin]
0.22 nM	CC(C)c1cccc2c1C(=O)N(COc1cc(=O)oc3ccccc13)S2(=O)=O [Example 1B]

— patent EP0547708A1, “Saccharin derivative proteolytic enzyme inhibitors” (STERLING WINTHROP INC., priority 1991, dated 1993)
